# Reference: patent US6660300B1, “Method of use of a biphasic controlled release delivery system for high solubility pharmaceuticals and method” (Bristol-Myers Squibb Co., priority 1998, dated 2003)
# Counter-ions that a name gives are not always drawn.
# Key:
# [1] = cited from earlier work
# [2] = compaction susceptibility
# [3] = hygroscopicity at 95% relative humidity/25° C.
Structure (SMILES),"area under the plasma concentration-time profile, jejunum compared with ileum ([1]; drug perfused into jejunum versus ileum) [fold]",drug in plasma ([1]; drug perfused into the colon),compaction susceptibility [2],"hygroscopicity, moisture uptake ([3]; at 6 hours)","hygroscopicity, moisture uptake ([3]; at 30 minutes)"
CN(C)C(=N)N=C(N)N [metformin],2.5,not detectable,–,–,–
"CN(C)C(=N)N=C(N)N [metformin (2:1) fumarate, Metformin (2:1) Fumarate]",–,–,low,less than 7%,–
"CN(C)C(=N)NC(=N)N [metformin (2:1) succinate, Metformin (2:1) Succinate]",–,–,low,–,less than 1%
